Test results: US20040192641A1, “Special preparation of anticancer drugs made by novel nanotechnology” (priority 2003, published 2004)

Experiments:
tyrosine kinase (TK) = assay: Tyrosine kinase (TK) activity of HL-60 leukemia cells; format: cell-based, human; conditions: 24 hours
Method: H-60 leukemia cells were plated at a density of 5×10^5 cells in […], and divided control and treatments groups for incubation 24 hours at 37° C. with 5% CO2. The cells were collected and washed twice with phosphate-buffered saline and re-suspended at density of 10^6 cells/ml in 5 mM HEPEs buffer (pH 7.4). The cells were then re-suspended in 1 ml of buffer containing 5 mM HEPES (pH 7.6), 1 mM MgCl2 and 1 mM EDTA, then placed on ice bath. The cell membrane was disrupted by ultra sound and centrifuged at 1000×g for 10 minutes. The supernatant was ultra centrifuged at 30,000×g for 30 minutes at 4° C. The pellet was re-suspended in 0.3 ml of buffer containing 25 mM HEOES, centrifuged at 12,000×g for 5 minutes. The resulting supernatant was used for TK assay. Content of protein was determined. 10 μg of protein placed in 20 mM HEPES (pH 7.6), 15 mM MgCl2, 10 mM ZnCl2 and 5% (v/v) Nonidet P-40. After 5 minutes incubation at 25° C., the reaction was initiated by the addition of 25 μM [γ^32P] ATP (3 ci/mmol). After 10 minutes, the reaction was stopped by the addition of 20 mM cold ATP. […] Radioactivity was determined by liquid scintillation spectrometry. The net TK activity was determined after correcting for endogenous TK activity.

L-120 leukemia = assay: Survival of mice bearing leukemia (free HHT vs PK-HHT-NP); format: in vivo
Text: Methods: L-120 leukemia mice, weight 20-22 g were used in the experiment. […] The dose of PK-HHT-NP is equivalent of free HHT. (All the following comparing experiments are used same methods).

all cancer cells = assay: Inhibition of tumor cell proliferation, all cancer cells (statement); format: cell-based
Method: Human tumor cell lines: Hela leukemia HL-60, malignant melanocarcinoma B16, oral epidermoid carcinoma (KB), lung carcinoma (A549), breast carcinoma MCF-7, adenocarcinoma of stomach.
Animal tumor cell lines: Walker carcinoma, LLC-WRC-256, malignant melanoma (RMMI 1846), 3T3, and S-180 sarcoma (CCRF-180). All lines were routinely cultured in the RPMI1640 medium supplemented 20% fetal calf serum. The experiment was carried out in 96 microplate, each well had 5×10^5 cells and given desired concentration of 1 μg/ml (1×10^−6 g/ml) drug. Then the plate was incubated at 37° C. in an atmosphere of humidified air enriched with 5 percent carbon dioxide for 72 hours. Concentration of ELE or PK-ELE-NP is 50 ng/ml.
Inhibition percent rate of tumor cell proliferation was obtained according to the bellow formula. [formula]

Row | Compound | % of control activity (TK) (tyrosine kinase (TK); Concentration 10^−6 M) [%] | % of control activity (TK) (tyrosine kinase (TK); Concentration 10^−7 M) [%] | Survival time T/L days (L-120 leukemia; Dose 1 mg/kg) | T/C (%) (L-120 leukemia; Dose 1 mg/kg) | Survival time T/L days (L-120 leukemia; Dose 5 mg/kg) | T/C (%) (L-120 leukemia; Dose 5 mg/kg) | Percent rates of inhibition (all cancer cells)
1 | COC(=O)C[C@](O)(CCCC(C)(C)O)C(=O)O[C@@H]1C(OC)=C[C@]23CCCN2CCc2cc4c(cc2[C@H]13)OCO4 [HHT, Homoharringtonine] | 20.8 | 14.8 | 5/9 | 55.6 | 27/9 | 300 | 
2 | Eelemene |  |  |  |  |  |  | more than 70%
